Laboratory results taken from patent publication US20210186972A1, “FORMULATIONS AND METHODS FOR THE PREVENTION AND TREATMENT OF TUMOR METASTASIS AND TUMORIGENESIS” (THE UNITED STATES OF AMERICA, AS REPRESENTED BY THE …, priority 2018, published 2021).

Key:
KPC mice = test: Veterinary histopathology and clinical chemistry, KPC mice; assay type: in vivo
PC3M-GFP-PTB cells = test: Cytotoxicity measured by cellular ATP (CELLTITER GLO); assay type: cell-based, human
Text: FIG. 1 is a graph showing the concentration-response curve against PNC prevalence in PC3M (a metastatic prostate cancer cell line)-GFP (green fluorescent protein)-PTB (polypyrimidine tract-binding protein) cells (squares, PC3M, has a PNC prevalence of 75-85% in the absence of treatment) and cytotoxicity as measured by cellular ATP (CELLTITER GLO™) (circles). Representative PTB-GFP images for cells at the indicated concentrations (arrowheads indicate PNCs) (scale bar=5 μm) are shown in the three panels above the graph. The relative signal (%) is along the y-axis and Metarrestin [log M] is along the x-axis.

PC3M cells = test: 24-well Transwell MATRIGEL invasion assay, PC3M; assay type: cell-based, human; conditions: 0.6 μM, within 24 hours
Protocol: (§1) FIG. 3 is a bar graph showing that metarrestin inhibits MATRIGEL gelatinous protein mixture (BD Biosciences, Franklin Lakes, N.J.) invasion at below micromolar concentrations (0.6 μM) within 24 hours of treatment (* p<0.05 and ** p<0.01 in comparison to DMSO [control]). The invasion (%) is on the y-axis and the metarrestin [microM] is on the x-axis. The cell line PC3M is shown in white bars and the cell line PANC1 (human pancreas) is shown in black bars.
(§2) 24-well Transwell Permeable MATRIGEL gelatinous protein mixture Invasion assay: The effect of metarrestin on invasion activity of PANC1 and PC3M cells was measured using 24-well Transwell Permeable MATRIGEL gelatinous protein mixture Invasion Chambers with 8 μm pores (Corning, Cat #354480). Membranes were rehydrated with 500 μL of serum-free DMEM (Thermo Fisher, Cat #11965084) both inside the chamber and inside the well and incubated for two hours at 37° C., 5% CO2. Cells were detached, washed, resuspended in serum-free DMEM, counted, and diluted to a final concentration of 1×10^5 cells/mL in six separate 15 mL conical tubes. […] 750 μL of DMEM plus 10% FBS acting as a chemoattractant were placed in the basal wells. Plates were incubated at 37° C., 5% CO2 for 24 hours. […]

[1] = system: Pol I transcription (5′ETS RNA); test: rDNA transcription: BrU incorporation and qRT-PCR of 5′ETS; assay type: cell-based
Protocol: To determine which steps in ribosomal biogenesis that are disrupted by metarrestin, rDNA transcription was evaluated using a BrU incorporation assay, an in situ run-on assay that detects the localization pattern of newly synthesized RNA. Cells were rinsed once in glycerol buffer (20 mM Tris-HCl pH 7.4, 5 mM MgCl2, 25% glycerol, 0.5 mM PMSF, 0.5 mM EGTA) and followed by Br—U incorporation assay protocol. The cells were co-immunolabeled with C23 (Santa Cruz Biotechnology) at a 1:100 dilution and anti-BrdU that also recognizes Br—U (Sigma) at a 1:50 dilution.
To evaluate the impact on rDNA transcription in metarrestin-treated cells, the amounts of 5′ETS RNA were quantified. The amount of 5′ETS correlates with the amount of rDNA transcription because 5′ETS in nascent pre-rRNA transcripts is rapidly removed.
RT-PCR: Total RNA was isolated from cells using TRIZOL reagent (Invitrogen) according to the manufacturer's instructions. cDNA was synthesized with Random Hexamer (IDT DNA Technologies) or gene-specific primers using M-MLV Reverse Transcriptase (Invitrogen 28025-013). The DNA was PCR-amplified with gene-specific primers. 5′ETS-F: […] (SEQ ID NO: 11); 5′ETS-R: GAACGACACACCACCGTTC (SEQ ID NO: 12); eEF1A1-F: […] […]

eEF1A = test: Western blot of total eEF1A; assay type: cell-based; conditions: 1 μM, 24 hours
PANC1 cells [2] = test: Cell growth, PANC1; assay type: cell-based, human; conditions: 0.6 μM, after 24 hours of treatment
Text: FIG. 63 is a graph showing the drug response of PANC1 cells following metarrestin treatment. […] Mean cell viability values are plotted with standard error of the mean (SEM) from at least 2 independent experiments done in triplicate.

PANC1 cells [3] = test: 24-well Transwell MATRIGEL invasion assay, PANC1; assay type: cell-based, human; conditions: 0.6 μM, within 24 hours
Protocol: as §1, §2

[4] = female, KPC, mouse, in vivo, 3 months
[5] = male, KPC, mouse, in vivo, 3 months

## N=c1c2c(-c3ccccc3)c(-c3ccccc3)n(Cc3ccccc3)c2ncn1[C@H]1CC[C@H](O)CC1 [metarrestin]
KPC mice; KPC-Metarrestin Female F01
  Ileum segmented filamentous bacteria: 3/3
KPC mice; KPC-Metarrestin Male M01
  Ileum segmented filamentous bacteria: 4/4
KPC mice; [4]
  Adrenal hyperplasia, subcapsular cell: 2/3
  Duodenum dilatation: 3/3
  Femur marrow hyperplasia, granulocytic: 1/3
  Gall Bladder hyperplasia, papillary: 3/3
  Kidney hydronephrosis: 1/3
  Kidney mineralization: 1/3
  Liver deformity: 1/3
  Liver inflammation, subacute: 3/3
  Lung lymphocytic infiltrate: 3/3
  Pancreas duct, dilation: 3/3
  Pancreas neoplasm, graded: 3/3
  Salivary Gland lymphocytic infiltrate: 2/3
  Spleen extramedullary hematopoiesis, erythrocytic, increased erythropoiesis: 1/3
  Spleen fibrosis: 1/3
  Spleen melanin: 1/3
  Stomach, glandular, hyperplasia, foveolar cells: 3/3
  Thyroid ectopic thymus: 1/3
  Vertebra hyperplasia, granulocytic, marrow: 1/3
KPC mice; [5]
  Adrenal lipogenic pigment: 3/4
  Cecum proliferative typhlitis: 1/4
  Duodenum dilatation: 1/4
  Duodenum hyperplasia, crypt: 1/4
  Femur marrow hyperplasia, granulocytic: 4/4
  Gall Bladder hyperplasia, papillary: 4/4
  Heart dilation, atrium: 1/4
  Heart mineralization: 1/4
  Kidney mineralization: 1/4
  Kidney vacuolation. proximal tubule: 1/4
  LN, mandibular hyperplasia, lymphoid: 1/4
  LN, mandibular plasmacytosis: 1/4
  Liver inflammation, subacute: 2/4
  Liver lymphocytic infiltrate: 2/4
  Lung lymphocytic infiltrate: 3/4
  Pancreas duct, dilation: 4/4
  Pancreas neoplasm, graded: 4/4
  Skin/Subcutis inflammation, chronic active: 1/4
  Spleen extramedullary hematopoiesis, erythrocytic, increased erythropoiesis: 1/4
  Spleen fibrosis: 2/4
  Stomach, glandular, hyperplasia, foveolar cells: 2/4
  Stomach, nonglandular, erosion: 1/4
  Thyroid hyperplasia, papillary: 1/4
  Vertebra hyperplasia, granulocytic, marrow: 4/4
KPC mice; mouse, in vivo, 10 mg/kg
  Histopathological or laboratory abnormalities: failed to discern any histopathological or laboratory abnormalities
KPC mice; mouse, in vivo, po, 25 mg/kg
  Histopathological or laboratory abnormalities: failed to discern any histopathological or laboratory abnormalities
PC3M-GFP-PTB cells
  Acute cytotoxicity (cellular ATP): without acute cytotoxicity
PC3M cells
  Invasion of PC3M cells: effectively blocked the invasion
[1]; five-minute incubation
  Organization of newly synthesized rRNA (BrU incorporation): altered into tight small clusters
[1]; vs DMSO-treated control cells
  5′ETS RNA (quantitative RT-PCR): substantial reduction of 5′ETS RNA
eEF1A
  Total eEF1A protein: remained similar
PANC1 cells [2]
  PANC1 cell growth: did not affect PC3M or PANC1 cell growth
PANC1 cells [3]
  Invasion of PANC1 cells: effectively blocked the invasion
